The values below come from paper PMC11378297, “Discovery and Profiling of New Multimodal Phenylglycinamide Derivatives as Potent Antiseizure and Antinociceptive Drug Candidates” (ACS Chemical Neuroscience, 2024).

Like-named read-outs stand apart in the source and are kept apart here. Marks after values point to notes of the source that are not given here. Bounds are passed on as bounds.

For data set [1], the system named is mice (motor coordination). The following applies: racemates, chimney test, i.p.; cited from earlier work.
In data set [2] the test system is 6 Hz (44 mA) seizures, mice. The settings on record: i.p., cited from earlier work.
In data set [3] the test system is 6 Hz (32 mA) seizures, mice. The following applies: i.p., cited from earlier work.
The test system of data set [4] is maximal electroshock (MES) seizures, mice. The settings on record: i.p., cited from earlier work.
In data set [5] the test system is mice (motor coordination). The settings on record: reference ASMs, rotarod test, i.p.; cited from earlier work. In general terms: Falling from the rotarod earlier than controls is read as motor impairment.
The subject of data set [6] is formalin-induced pain, mice. Also on record: method as in PMID 28934547. The following applies: previously tested in the authors' laboratory; cited from earlier work.
In data set [7] the test system is capsaicin-induced pain, mice. More on the design: method as in PMID 28934547. The settings on record: 200 mg/kg; cited from earlier work.
The subject of data set [8] is glutamate and GABA concentrations in brain. Put plainly: glutamate and GABA concentrations in hippocampus and cortex of PTZ-kindled mice. In kind it is in vivo, mouse. The source says: After behavioral tests (FST, PTZ-induced kindling), we determined the changes in glutamate and GABA concentrations in the hippocampus and cortex. Since exposure to the FST can evoke various neurochemical alterations, two additional groups were employed in this experiment, i.e., control nonkindled mice that were exposed to the FST and naïve mice. No marked differences in both glutamate and GABA concentrations in the hippocampus were observed (Figure 5A). […] We found a significant increase in glutamate concentration in the cortex of mice subjected to the FST (p < 0.05 vs naive mice). […] Given that seizures are typically accompanied by elevated extracellular glutamate levels (an excitatory neurotransmitter), a decreased glutamate concentration in the cortex of kindled animals may appear to be an unexpected outcome. It should be highlighted, however, that the concentrations of glutamate and GABA in tissue homogenates rather than dialysate were measured in brain samples acquired 24 h following the previous PTZ dose, which may have an impact on the outcomes. On the other hand, decreased glutamate levels could be caused by the up-regulation of glutamate transporters, as the expression of glutamate transporters can increase following seizures.[48] For example, an increased expression of hippocampal GLT-1 was observed 24 h after kainic acid-induced status epilepticus in mice and PTZ-induced kindling in rats.[49] Moreover, similar to our findings, Szyndler et al.([50]) found decreased glutamate concentrations, with no changes in GABA concentrations, in homogenates of the hippocampus, striatum, and prefrontal cortex of PTZ-kindled rats.
Figure 5 Changes in glutamate and GABA concentrations in the hippocampus (A) and cortex (B). Data are shown as means + SD (n = 9–14 animals). Statistical significance was evaluated by one-way ANOVA followed by Tukey’s post hoc test: *p < 0.05, **p < 0.01, ***p < 0.001 (GraphPad Prism 8.4.3).
GABA and glutamate concentrations were determined using liquid chromatography tandem mass spectrometry (LC-MS/MS) in the mouse prefrontal cortex and hippocampus. Toronto Research Chemicals Inc. was the source of the standards for both analytes (Toronto, ON, Canada). GABA and glutamate stock standard solutions were made in methanol and deionized water, respectively, and kept cold at 4 °C. The stock solutions were suitably diluted to create a range of solution combinations with the appropriate concentrations. Prior to analysis, a hand-held pestle and glass tube homogenizer (Potter–Elvehjem PTFE pestle and glass tube, Sigma-Aldrich, St. Louis, MO, USA) were used to homogenize mouse brains in distilled water at a ratio of 50 μL/mg. Following a 10 min centrifugation at 8000g for 10 min at 4 °C, homogenates were diluted 10 times with 0.1% formic acid in MeCN from the supernatant. Samples (10 μL) were deproteinized with 80 μL of 0.1% formic acid in MeCN by shaking for 10 min (IKA Vibrax VXR, IKA Werke GmbH & Co. KG, Staufen im Breisgau, Germany) and centrifuged for 5 min at the speed of 8000g (Eppendorf miniSpin centrifuge) after isotope-labeled GABA-d6 and glutamate-d5 (Toronto Research Chemicals Inc., Toronto, ON, Canada) were added as internal standards (10 μL at the concentration of 500 ng/mL). The autosampler vials were filled with the acquired supernatants. […]

Data set [9] has as its system PTZ-induced kindling, mice. Put plainly: PTZ-induced kindling model. The settings on record: 150 mg/kg i.p. repeatedly, positive control. In kind it is in vivo, mouse. The procedure:
We investigated the impact of lead compound (R)-32 on PTZ-induced kindling in mice to further assess its antiseizure potential (Figure 3). […] The PTZ-induced kindling model is widely recognized as a useful method to induce chronic increase in susceptibility to epileptic seizures.
Figure 3 Effect of repeated treatment with (R)-32 in PTZ-induced kindling model in mice. […] Data are presented as means of seizure severity (n = 10–15 animals). Statistical significance was evaluated by a mixed effects model for repeated measures followed by Tukey’s post hoc test: **p < 0.01, […] vs control group (GraphPad Prism 8.4.3).
The procedure was performed as described in detail in our previous studies.[88],[89] […] Seizures were induced three times a week by i.p. administration of PTZ at a subconvulsive dose of 40 mg/kg. […] The seizure severity was scored using the modified Racine’s scale. […] The locomotor activity test, the elevated plus maze test, and the FST were performed 24 h after the last PTZ injection, according to the methods described in detail elsewhere. After completion of behavioral tests, animals were sacrificed. Hippocampi and cortices were dissected from the brains, frozen, and stored at −80 °C until assay. Following each PTZ injection, the mean seizure severity scores were determined for each experimental group. A mixed effects model for repeated measurements was used for analysis, along with Tukey’s post hoc test. The percentage of fully kindled mice was compared using Fisher’s exact probability test.

For data set [10], the system named is mature-BDNF (mBDNF) expression. The data set can be described thus: mBDNF expression in hippocampus and cortex of PTZ-kindled mice (Western blot). It is filed as in vivo, mouse. The following applies: VPA repeated (150 mg/kg), p < 0.01 vs PTZ kindling control. The source says: However, there are also few reports showing opposite findings.[51],[52] […] No changes in the expression of the nerve growth factor (NGF) were observed (Figure 6D–F).
Figure 6 Changes in mature-BDNF (mBDNF) expression in hippocampus (A) and cortex (C) and in proNGF expression in hippocampus (D) and cortex (F) with representative immunoblots, together with total protein amount visualized by the stain-free technique (B,E). Data are shown as means of relative expressions + SD (n = 8). Statistical significance was evaluated by one-way ANOVA followed by Tukey’s post hoc test: **p < 0.01 (GraphPad Prism 8.4.3).
The Western Blot method was used to assess the expression of proNGF and mBDNF in the mouse brain and hippocampal tissues. Using a bead homogenizer (Bead Ruptor Elite, Omni International, USA), the cortical and hippocampal regions of the mouse brain were weighted and homogenized at a ratio of 9 μL/mg in 2% SDS supplemented with a cocktail of protease (Thermo Scientific, Walthman, MA, USA) and phosphatase inhibitors (Sigma-Aldrich, St. Louis, MO, USA). Samples were then centrifuged at 10,000g for 10 min at 4 °C after being denatured for 10 min at 95 °C. […] One-way ANOVA with Tukey’s post hoc test was utilized to examine changes in the relative expression of the proteins that were evaluated.
On the technique in general: A western blot detects proteins with antibodies after separation by electrophoresis.

Data set [11] is described as follows: hepatotoxicity, HepG2 cell viability. In kind it is cell-based, human. The following applies: human, HepG2 hepatoma cells; 1 μM, 72 h of incubation (Figure 11).
Method: The hepatotoxicity potential was assessed with the HepG2 cell line and the reference cytostatic drug doxorubicin.
The results are presented as means + SD. Statistical significance was evaluated by one-way ANOVA, followed by Bonferroni’s multiple comparison post hoc test (Graph Pad Prism 8.0.1 software, San Diego, CA, USA): *p < 0.05, ***p < 0.001, ****p < 0.0001 vs negative control (DMSO 1% in growth media).
Where [12] appears, read: racemates, pretreatment time 0.5 h.
Where [13] appears, read: reference ASMs, pretreatment time 0.5 h (LCS, VPA) or 1.0 h (LEV, CBD).

`CC(=O)NC(C(=O)N1CCN(c2cccc(C(F)(F)F)c2)CC1)c1ccccc1` (stereo not drawn) [KJ-5]: in data set [1], the TD50 is 179.7 ^b mg/kg. Further, the “ED50 6 Hz (44 mA)” value in [2] (setting [12]) is listed as 68.0 mg/kg. For the same compound, the “ED50 6 Hz (32 mA)” value in [3] (setting [12]) is 29.9 mg/kg. Moreover, in data set [4] (setting [12]), the “ED50 MES” value is reported as 89.7 mg/kg.

`CC[C@@H](C(N)=O)N1CCCC1=O` [LEV, levetiracetam]: the “ED50 6 Hz (44 mA)” value in data set [2] (setting [13]) is reported as 204.0 mg/kg. In addition, the TD50 in data set [5] is >500 ^c mg/kg. Further, the “ED50 MES” value in [4] (reference ASMs, pretreatment time 0.5 h (LCS, VPA) or 1.0 h (LEV, CBD), literature or own experiments) is recorded as over 500 mg/kg.

Turning to `CCCC(CCC)C(=O)O` [VPA, valproic acid, reference compound], the “ED50 in the late phase of the formalin test” value in data set [6] was 132.9 mg/kg. In addition, the “ED50 6 Hz (32 mA)” value in data set [3] (setting [13]) was 130.6 mg/kg. For the same compound, in [7], the “activity in capsaicin-induced pain” value is “active only at the highest administered dose”. Moreover, in [8] (150 mg/kg, p < 0.05 vs PTZ-kindled control group), the “GABA concentration in the cortex” value was “significantly decreased”. Further, in [8] (vs nonkindled FST control group), the “glutamate concentration in the hippocampus” value is listed as “slight decrease”. Further, the “effect on kindling progression” value in data set [9] is listed as “suppressed kindling progression”. The “mBDNF protein expression in the hippocampus (PTZ kindling-induced overexpression)” value in data set [10] is recorded as “reversed the overexpression”.

By viability is commonly meant a per cent measure of how many cells are alive, often set against a control. Lower therefore signals a greater loss of cells. `COc1cccc2c1C(=O)c1c(O)c3c(c(O)c1C2=O)C[C@@](O)(C(=O)CO)C[C@@H]3O[C@H]1C[C@H](N)[C@H](O)[C@H](C)O1` [doxorubicin, reference compound] came in with a viability at 72 h, 1 µM in data set [11] of about 20%.
